{"source": "patent US20140356383A1", "about": "“ADMINISTRATION OF AN ANTI-GCC ANTIBODY-DRUG CONJUGATE AND A DNA DAMAGING AGENT IN THE TREATMENT OF CANCER” (priority 2013, published 2014)", "key": {"293-GCC#2 s.c. tumors": {"system": "293-GCC#2 s.c. tumors", "experiment": "Efficacy study with 5F9vcMMAF and 5F9-DMx in 293-GCC#2 s.c. tumors, q14d×5", "assay_type": "in vivo", "conditions": "293-GCC#2 bearing SCID mice, 75 and 150 μg/kg toxin", "description": "5F9-SPDB-DM4, 5F9-SMCC-DM1 and 5F9vcMMAF were tested for efficacy in the 293-GCC#2 tumor model at two doses (75 μg/kg and 150 […] toxin), on a q14d×5 schedule. Specifically, this study included vehicle-treated control, Sc209-DM1 (150 μg/kg DM1 eq), Sc209-DM4 (150 μg/kg DM4 eq), Sc209-vcMMAF (150 μg/kg MMAF eq), 5F9-DM1 (150 μg/kg DM1 eq), 5F9-DM1 (75 μg/kg DM1 eq), 5F9-DM4 (150 μg/kg DM4 eq), 5F9-DM4 (75 μg/kg DM4 eq), 5F9-vcMMAF (150 μg/kg MMAF eq), and 5F9-vcMMAF (75 μg/kg MMAF eq). Taconic female mice bearing 293-GCC#2 cells (10 mice per group) were used.\nFIG. 1 depicts tumor growth in 293-GCC#2 bearing SCID mice treated with 5F9vc-MMAF, -DM1, and -DM4 on a q14d schedule. […] Therefore at these doses and schedules, 5F9-SPDB-DM4 had the greatest efficacious differential from its control conjugate."}, "HT29-GCC#5 s.c. tumors": {"system": "HT29-GCC#5 s.c. tumors", "experiment": "Pilot efficacy studies in HT29-GCC#5 s.c. tumors", "assay_type": "in vivo", "conditions": "150 μg/kg on a q3d×5 schedule, mice bearing HT29-GCC#5 tumors", "description": "Studies were performed to determine efficacious conjugates and dosage regimens in mice bearing HT29-GCC#5 tumors. Mice were dosed with single or multiple doses. These studies determined that there was toxicity at too frequent dosing at higher levels of toxin conjugate (e.g., 150 μg/kg 5F9vcMMAF on a q3d×5 schedule). Another study determined that q14d×5 schedule was too infrequent in this model to allow some toxin conjugates to show significant efficacy vs. controls."}, "293 GCC#2 tumors": {"system": "293 GCC#2 tumors", "experiment": "Efficacy study with auristatin conjugates in 293 GCC#2 tumors, q7d×4", "assay_type": "in vivo, SCID mice", "conditions": "for T/C: treatment/control", "description": "293 GCC#2 tumor-bearing SCID mice were treated with 5F9 conjugates with vc MMAE, vcMMAF or mcMMAF at three doses in comparison with 209 conjugates of these toxins or with free toxins or vehicle control. Doses were administered iv on a q7d×4 schedule. Tumors were harvested at days 3, 7, 10, 13 and 17. […] Table 18 provides a summary of the results (TGI=tumor growth inhibition, T/C=treatment/control, TGD=tumor growth delay, CR/PR=complete response/partial response; p value=measure to judge statistical significance, NS=not significant)."}, "293-GCC#2 tumors": {"system": "293-GCC#2 tumors", "experiment": "PK/PD study (phospho-histone H3) in 293-GCC#2 tumor bearing mice", "assay_type": "in vivo", "from_the_text": "Phospho-histone H3 was detected by antibody (Upstate Biotechnology, now Millipore, Billerica, Mass.) staining of paraffin embedded sections of tumors."}, "HT 29 GCC #18 cells": {"system": "HT 29 GCC #18 cells", "experiment": "Direct cytotoxicity assay (WST), HT 29 GCC #18 cells", "assay_type": "cell-based, human", "conditions": "auristatin ADCs"}}}
{"substance": "5F9-vcMMAF: 5F9 anti-GCC antibody conjugated with mc-vc-MMAF", "values": [{"measurement": "efficacy (tumor growth, FIG. 1)", "setting": "293-GCC#2 s.c. tumors", "value": "the most efficacious"}, {"measurement": "toxicity at too frequent dosing", "setting": "HT29-GCC#5 s.c. tumors", "value": "toxicity"}, {"measurement": "TGI", "setting": "293 GCC#2 tumors; 37.5 μg/kg iv q7d×4", "value": 65.2}, {"measurement": "T/C", "setting": "293 GCC#2 tumors; 37.5 μg/kg iv q7d×4", "value": 0.35}, {"measurement": "TGD", "setting": "293 GCC#2 tumors; 37.5 μg/kg iv q7d×4, tumor growth delay", "value": 7.1}, {"measurement": "TGI", "setting": "293 GCC#2 tumors; 75 μg/kg iv q7d×4", "value": 88.5}, {"measurement": "T/C", "setting": "293 GCC#2 tumors; 75 μg/kg iv q7d×4", "value": 0.12}, {"measurement": "TGI", "setting": "293 GCC#2 tumors; 150 μg/kg iv q7d×4", "value": 97}, {"measurement": "T/C", "setting": "293 GCC#2 tumors; 150 μg/kg iv q7d×4", "value": 0.03}, {"measurement": "Average % Tumor cells pH 3 positive", "setting": "293-GCC#2 tumors; single iv dose 75 μg/kg, 1 hr", "value": 4.235, "unit": "%"}, {"measurement": "Average % Tumor cells pH 3 positive", "setting": "293-GCC#2 tumors; single iv dose 75 μg/kg, 4 hr", "value": 4.184, "unit": "%"}, {"measurement": "Average % Tumor cells pH 3 positive", "setting": "293-GCC#2 tumors; single iv dose 75 μg/kg, 8 hr", "value": 4.93, "unit": "%"}, {"measurement": "Average % Tumor cells pH 3 positive", "setting": "293-GCC#2 tumors; single iv dose 75 μg/kg, 24 hr", "value": 20.22, "unit": "%"}, {"measurement": "Average % Tumor cells pH 3 positive", "setting": "293-GCC#2 tumors; single iv dose 75 μg/kg, 48 hr", "value": 9.921, "unit": "%"}, {"measurement": "Average % Tumor cells pH 3 positive", "setting": "293-GCC#2 tumors; single iv dose 75 μg/kg, 96 hr", "value": 10.38, "unit": "%"}, {"measurement": "Average % Tumor cells pH 3 positive", "setting": "293-GCC#2 tumors; single iv dose 150 μg/kg, 1 hr", "value": 3.466, "unit": "%"}, {"measurement": "Average % Tumor cells pH 3 positive", "setting": "293-GCC#2 tumors; single iv dose 150 μg/kg, 4 hr", "value": 4.417, "unit": "%"}, {"measurement": "Average % Tumor cells pH 3 positive", "setting": "293-GCC#2 tumors; single iv dose 150 μg/kg, 8 hr", "value": 8.594, "unit": "%"}, {"measurement": "Average % Tumor cells pH 3 positive", "setting": "293-GCC#2 tumors; single iv dose 150 μg/kg, 24 hr", "value": 21.54, "unit": "%"}, {"measurement": "Average % Tumor cells pH 3 positive", "setting": "293-GCC#2 tumors; single iv dose 150 μg/kg, 48 hr", "value": 15.16, "unit": "%"}, {"measurement": "Average % Tumor cells pH 3 positive", "setting": "293-GCC#2 tumors; single iv dose 150 μg/kg, 96 hr", "value": 11.12, "unit": "%"}, {"measurement": "LD 50 (nM)", "setting": "HT 29 GCC #18 cells", "value": ">10,000 nM"}]}
